Experimental data: article PMC5076878 (Bioorganic & medicinal chemistry letters, 2016)
“And” between values parts separate entries of the source, which are not always exact repeats. Equal values may be shown once.

How the values were obtained:
human LAT1 [1] = target: T1, human LAT1 (Homo sapiens, UniProt Q01650); format: cell-based; conditions: compound at 200 μM; pre-loaded HEK-hLAT1 cells; at least triplicate
human LAT1 [2] = target: T1, human LAT1; test: cis-inhibition assay: inhibition of [3H]-gabapentin uptake into HEK-hLAT1 cells; format: cell-based; conditions: read-out: % Inhibition of [3H]-gabapentin uptake

T1 sequence (Q01650 whole entry): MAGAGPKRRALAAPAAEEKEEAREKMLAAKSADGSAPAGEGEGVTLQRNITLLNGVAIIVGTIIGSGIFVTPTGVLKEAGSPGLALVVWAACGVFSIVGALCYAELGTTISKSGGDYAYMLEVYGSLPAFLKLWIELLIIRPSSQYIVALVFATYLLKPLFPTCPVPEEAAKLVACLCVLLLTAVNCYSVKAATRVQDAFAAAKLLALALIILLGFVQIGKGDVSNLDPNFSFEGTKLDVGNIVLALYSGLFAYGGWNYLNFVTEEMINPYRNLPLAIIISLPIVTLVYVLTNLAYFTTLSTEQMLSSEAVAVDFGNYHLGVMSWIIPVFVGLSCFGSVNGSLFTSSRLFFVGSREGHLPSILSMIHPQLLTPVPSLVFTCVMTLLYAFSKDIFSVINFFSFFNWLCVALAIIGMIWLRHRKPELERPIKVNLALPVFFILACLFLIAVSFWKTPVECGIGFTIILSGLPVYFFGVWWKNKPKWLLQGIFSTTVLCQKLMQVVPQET
T1 sequence (P08195 102-630 partner): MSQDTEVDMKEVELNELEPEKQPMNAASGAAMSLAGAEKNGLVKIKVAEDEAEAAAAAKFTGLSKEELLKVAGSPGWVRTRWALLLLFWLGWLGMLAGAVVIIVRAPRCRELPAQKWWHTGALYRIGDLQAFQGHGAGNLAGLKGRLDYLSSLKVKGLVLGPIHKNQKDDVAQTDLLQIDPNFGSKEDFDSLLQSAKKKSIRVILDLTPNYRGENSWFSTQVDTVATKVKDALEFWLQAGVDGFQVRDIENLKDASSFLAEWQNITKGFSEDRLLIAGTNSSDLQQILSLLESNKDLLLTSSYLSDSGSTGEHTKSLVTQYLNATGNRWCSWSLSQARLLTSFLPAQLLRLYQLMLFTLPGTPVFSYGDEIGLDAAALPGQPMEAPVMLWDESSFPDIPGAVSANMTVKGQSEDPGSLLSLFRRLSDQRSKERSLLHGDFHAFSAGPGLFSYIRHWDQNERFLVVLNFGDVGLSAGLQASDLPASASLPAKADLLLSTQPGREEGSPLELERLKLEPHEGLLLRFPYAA

| Compound | Efflux Rate of [3H]-gabapentin (human LAT1 [1]) | inhibition at 200 µM (human LAT1 [2]) |
| --- | --- | --- |
| N[C@@H](Cc1ccc(O)cc1)C(=O)NO [Compound 12b] | 1.0 ± 0.1 fmol/min | – |
| CS(=O)(=O)NC(=O)[C@@H](N)Cc1ccccc1 [Compound 10a] | 0.61 ± 0.06 fmol/min | – |
| N[C@@H](Cc1ccc(O)cc1)C(=O)O [Compound 1b, tyrosine] | – | 68 ± 0.5% |
| N[C@@H](Cc1c[nH]c2ccccc12)C(=O)NO [Compound 12d] | 1.0 ± 0.1 fmol/min | – |
| CS(=O)(=O)NC(=O)[C@@H](N)Cc1ccc(O)cc1 [Compound 10b] | 0.63 ± 0.03 fmol/min | – |
| CONC(=O)[C@@H](N)CC(C)C.Cl [Compound 9e] | 2.1 fmol/min and 2.1 ± 0.2 fmol/min | – |
| CSCC[C@H](N)C(=O)NO.Cl [Compound 12g] | 1.1 ± 0.01 fmol/min | – |
| CC[C@H](C)[C@H](N)C(=O)O [Compound 1f, isoleucine, reference compound] | 2.5 ± 0.1 fmol/min | – |
| CC(C)C[C@H](N)C(N)=O.Cl [Compound 13e, leucinamide] | 0.69 fmol/min and 0.69 ± 0.01 fmol/min | – |
| N[C@@H](Cc1c[nH]c2ccccc12)C(=O)O [Compound 1d, tryptophan, reference compound] | 1.6 ± 0.3 fmol/min | 79 ± 0.6% |
| CC(C)C[C@H](N)C(=O)NO.Cl [Compound 12e] | 1.5 fmol/min and 1.5 ± 0.1 fmol/min | – |
| NCC(=O)NO [Compound 12h] | 0.70 ± 0.1 fmol/min | – |
| CC[C@H](C)[C@H](N)C(=O)NO.Cl [Compound 12f] | 1.5 fmol/min and 1.5 ± 0.2 fmol/min | – |
| N[C@@H](Cc1ccccc1)C(=O)O [Compound 1a, phenylalanine, reference compound] | 3.6 fmol/min and 3.6 ± 0.7 fmol/min | 85 ± 0.6% |
| N[C@@H](Cc1ccccc1)c1nnn[nH]1 [Compound 11] | 0.61 ± 0.01 fmol/min | – |
| N=C(N)NCCC[C@H](N)C(=O)O [Compound 1i, reference compound] | 0.75 ± 0.1 fmol/min | 49 ± 2% |
| CSCC[C@H](N)C(=O)O [Compound 1g, methionine, reference compound] | 2.4 ± 0.1 fmol/min | – |
